Results reported in US8344008B2 (Janssen Pharmaceutica NV, priority 2007, dated 2013).
pKi: −log10 of the molar value. Counter-ions that a name gives are not always drawn.

Biological target: T1, recombinant human LTA4 hydrolase (rhLTA4H) (Homo sapiens, UniProt P09960)
T1 construct: made in house; host or cells: Spodoptera frugiperda (Sf-9) cells, baculovirus (pFastBac1)
T1 sequence (P09960 1-611): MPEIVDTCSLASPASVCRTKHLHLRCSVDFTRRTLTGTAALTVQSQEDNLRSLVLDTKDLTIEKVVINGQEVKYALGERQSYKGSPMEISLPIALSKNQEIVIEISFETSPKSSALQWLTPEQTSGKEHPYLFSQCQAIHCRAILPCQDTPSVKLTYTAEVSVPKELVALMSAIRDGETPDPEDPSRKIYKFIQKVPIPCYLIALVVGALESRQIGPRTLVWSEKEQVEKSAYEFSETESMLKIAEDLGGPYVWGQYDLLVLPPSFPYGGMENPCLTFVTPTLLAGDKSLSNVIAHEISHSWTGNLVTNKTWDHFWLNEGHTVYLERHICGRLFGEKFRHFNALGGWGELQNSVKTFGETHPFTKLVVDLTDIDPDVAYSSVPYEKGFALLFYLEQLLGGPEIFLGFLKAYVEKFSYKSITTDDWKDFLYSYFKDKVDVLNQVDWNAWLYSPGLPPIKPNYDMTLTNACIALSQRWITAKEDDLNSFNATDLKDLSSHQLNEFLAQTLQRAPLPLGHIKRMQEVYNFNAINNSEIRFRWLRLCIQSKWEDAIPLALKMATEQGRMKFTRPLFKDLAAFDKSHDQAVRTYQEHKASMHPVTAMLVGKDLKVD
Experiment: Recombinant Human LTA4 Hydrolase Assay for LTA4 Hydrolase Inhibitor Activity
Type: biochemical
Details: average of results obtained; LTB4 quantified by enzyme-linked immunoassay
In short: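 Baculovirus/Sf-9-expressed human LTA4 hydrolase (36 ng) preincubated with compound 10 min at rt in 0.1 M potassium phosphate pH 7.4, 5 mg/mL fatty-acid-free BSA. Reaction started with 9 ng LTA4 free acid, run 10 min at rt; LTB4 measured by enzyme immunoassay, IC50 from 4-parameter fit.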

| pKi | SMILES |
| --- | --- |
| 6.56 | Cc1ccc2sc(Oc3ccc(OCCN4C[C@@H]5C[C@H]4CN5S(C)(=O)=O)cc3)nc2c1 [Example 255, (S,S)-2-{4-[2-(5-Methanesulfonyl-2,5-diaza-bicyclo[2.2.1]hept-2-yl)-ethoxy]-phenoxy}-5-methyl-benzothiazole] |
| 7.28 | CC(=O)N1[C@@H]2CC[C@H]1C[C@@H](NCc1ccc(Oc3nc4ccc(F)cc4s3)cc1)C2 [Example 175, meso-endo-1-{3-[4-(6-Fluoro-benzothiazol-2-yloxy)-benzylamino]-8-aza-bicyclo[3.2.1]oct-8-yl}-ethanone] |
| 6.62 | CC(=O)N1[C@@H]2CC[C@H]1C[C@@H](N(C)Cc1ccc(Oc3nc4ccccc4s3)cc1)C2 [Example 74, meso-endo-1-(3-{[4-(Benzothiazol-2-yloxy)-benzyl]-methyl-amino}-8-aza-bicyclo[3.2.1]oct-8-yl)-ethanone] |
| 6.71 | CS(=O)(=O)N1CC2CN(Cc3ccc(Cc4nc5ccccc5s4)cc3)CC2C1 (stereo not shown) [Example 150, 2-[4-(5-Methanesulfonyl-hexahydro-pyrrolo[3,4-c]pyrrol-2-ylmethyl)-benzyl]-benzothiazole] |
| 7.10 | CC(=O)N1CC2CN(Cc3ccc(Cc4nc5ccccc5s4)cc3)CC2C1 (stereo not shown) [Example 149, 1-[5-(4-Benzothiazol-2-ylmethyl-benzyl)-hexahydro-pyrrolo[3,4-c]pyrrol-2-yl]-ethanone] |
| 6.77 | O=C([C@H]1CCCO1)N1CC2CN(Cc3ccc(Oc4nc5ccccc5s4)cc3)CC2C1 (stereo partly drawn) [Example 100, (R)-{5-[4-(Benzothiazol-2-yloxy)-benzyl]-hexahydro-pyrrolo[3,4-c]pyrrol-2-yl}-(tetrahydro-furan-2-yl)-methanone] |
| 7.80 | CC(C)(C)OC(=O)NCC(=O)N1C[C@@H]2C[C@H]1CN2CCOc1ccc(Oc2nc3ccccc3s2)cc1 [Example 30, (S,S)-[2-(5-{2-[4-(Benzothiazol-2-yloxy)-phenoxy]-ethyl}-2,5-diaza-bicyclo[2.2.1]hept-2-yl)-2-oxo-ethyl]-carbamic acid tert-butyl ester] |
| 7.27 | c1ccc2sc(Oc3ccc(CN4C[C@@H]5C[C@H]4CN5)cc3)nc2c1 [Example 1B, (S,S)-2-[4-(2,5-Diaza-bicyclo[2.2.1]hept-2-ylmethyl)-phenoxy]-benzothiazole hydrochloride] |
| 8.70 | CC(=O)N[C@H]1C[C@H]2CC[C@@H](C1)N2Cc1ccc(Oc2nc3c(F)cccc3s2)cc1 [Example 68, meso-endo-N-{8-[4-(4-Fluoro-benzothiazol-2-yloxy)-benzyl]-8-aza-bicyclo[3.2.1]oct-3-yl}-acetamide] |
| 7.12 | NCC(=O)N1C[C@@H]2C[C@H]1CN2CCOc1ccc(Oc2nc3ccccc3s2)cc1 [Example 31, (S,S)-2-Amino-1-(5-{2-[4-(benzothiazol-2-yloxy)-phenoxy]-ethyl}-2,5-diaza-bicyclo[2.2.1]hept-2-yl)-ethanone] |
| 6.22 | Cc1ccc2nc(Oc3ccc(CN4CC5CN(C(N)=O)CC5C4)cc3)sc2c1 (stereo not shown) [Example 145, 5-[4-(6-Methyl-benzothiazol-2-yloxy)-benzyl]-hexahydro-pyrrolo[3,4-c]pyrrole-2-carboxylic acid amide] |
| 6.65 | NC(=O)N1[C@@H]2CC[C@H]1C[C@H](NCc1ccc(Oc3nc4cccc(F)c4s3)cc1)C2 [Example 171, meso-endo-3-[4-(7-Fluoro-benzothiazol-2-yloxy)-benzylamino]-8-aza-bicyclo[3.2.1]octane-8-carboxylic acid amide] |
| 7.19 | CC(=O)N[C@@H]1C[C@H]2CC[C@@H](C1)N2CCc1ccc(Oc2nc3cc(F)ccc3s2)cc1 [Example 266, meso-exo-N-(8-{2-[4-(5-Fluoro-benzothiazol-2-yloxy)-phenyl]-ethyl}-8-aza-bicyclo[3.2.1]oct-3-yl)-acetamide] |
| 6.10 | NC(=O)N1[C@@H]2CC[C@H]1C[C@@H](NCCOc1ccc(Oc3nc4c(Cl)cccc4s3)cc1)C2 [Example 221, meso-endo-3-{2-[4-(4-Chloro-benzothiazol-2-yloxy)-phenoxy]-ethylamino}-8-aza-bicyclo[3.2.1]octane-8-carboxylic acid amide] |
| 8.30 | NC(=O)N1CC2CN(CCc3ccc(Oc4nc5c(F)cccc5s4)cc3)CC2C1 (stereo not shown) [Example 147, 5-{2-[4-(4-Fluoro-benzothiazol-2-yloxy)-phenyl]-ethyl}-hexahydro-pyrrolo[3,4-c]pyrrole-2-carboxylic acid amide] |
| 6.96 | NC(=O)N1CC2CN(Cc3ccc(Oc4nc5ccccc5s4)cc3F)CC2C1 (stereo not shown) [Example 159, 5-[4-(Benzothiazol-2-yloxy)-2-fluoro-benzyl]-hexahydro-pyrrolo[3,4-c]pyrrole-2-carboxylic acid amide] |

| pKi | SMILES |
| --- | --- |
| 6.92 | CS(=O)(=O)N1CC2CCN(Cc3ccc(Oc4nc5ccccc5s4)cc3)C2C1 (stereo not shown) [Example 128, 2-[4-(5-Methanesulfonyl-hexahydro-pyrrolo[3,4-b]pyrrol-1-ylmethyl)-phenoxy]-benzothiazole] |
| 7.57 | O=C(c1cccs1)N1C[C@@H]2C[C@H]1CN2Cc1ccc(Oc2nc3ccccc3s2)cc1 [Example 61, (S,S)-{5-[4-(Benzothiazol-2-yloxy)-benzyl]-2,5-diaza-bicyclo[2.2.1]hept-2-yl}-thiophen-2-yl-methanone] |
| 7.19 | O=C(c1ccc[nH]1)N1C[C@@H]2C[C@H]1CN2CCOc1ccc(Oc2nc3ccccc3s2)cc1 [Example 65, (S,S)-(5-{2-[4-(Benzothiazol-2-yloxy)-phenoxy]-ethyl}-2,5-diaza-bicyclo[2.2.1]hept-2-yl)-(1H-pyrrol-2-yl)-methanone] |
| 6.63 | CC(=O)N1CC2CCC(C1)N2CCc1ccc(Oc2nc3ccc(Cl)cc3s2)cc1 [Example 250, meso-1-(8-{2-[4-(6-Chloro-benzothiazol-2-yloxy)-phenyl]-ethyl}-3,8-diaza-bicyclo[3.2.1]oct-3-yl)-ethanone] |
| 7.48 | CC(=O)N[C@H]1C[C@H]2CC[C@@H](C1)N2Cc1ccc(Oc2nc3ccc(C)cc3s2)cc1 [Example 73, meso-endo-N-{8-[4-(6-Methyl-benzothiazol-2-yloxy)-benzyl]-8-aza-bicyclo[3.2.1]oct-3-yl}-acetamide] |
| 7.02 | NC(=O)N1CC2CCN(Cc3ccc(Oc4nc5ccccc5s4)cc3)CC2C1 (single isomer, unassigned; (-)) [Example 142B, (−)-5-[4-(Benzothiazol-2-yloxy)-benzyl]-octahydro-pyrrolo[3,4-c]pyridine-2-carboxylic acid amide] |
| 7.68 | CS(=O)(=O)N1CCC2CN(Cc3ccc(Oc4nc5ccccc5s4)cc3)CC2C1 (stereo not shown) [Example 130, 2-[4-(5-Methanesulfonyl-octahydro-pyrrolo[3,4-c]pyridin-2-ylmethyl)-phenoxy]-benzothiazole] |
| 6.05 | CC(=O)N1[C@@H]2CC[C@H]1C[C@H](NCCOc1ccc(Oc3nc4ccc(Cl)cc4s3)cc1)C2 [Example 178, meso-exo-1-(3-{2-[4-(6-Chloro-benzothiazol-2-yloxy)-phenoxy]-ethylamino}-8-aza-bicyclo[3.2.1]oct-8-yl)-ethanone] |
| 6.76 | NC(=O)N1C2CCC1CN(Cc1ccc(Oc3nc4ccccc4s3)cc1)C2 [Example 59, meso-3-[4-(Benzothiazol-2-yloxy)-benzyl]-3,8-diaza-bicyclo[3.2.1]octane-8-carboxylic acid amide] |
| 7.64 | O=C(CO)N1CC2CN(Cc3ccc(Oc4nc5ccccc5s4)cc3)CC2C1 (stereo not shown) [Example 118, 1-{5-[4-(Benzothiazol-2-yloxy)-benzyl]-hexahydro-pyrrolo[3,4-c]pyrrol-2-yl}-2-hydroxy-ethanone] |
| 7.00 | Cc1ccc2nc(Oc3ccc(CCN4[C@@H]5CC[C@H]4C[C@@H](NC(N)=O)C5)cc3)sc2c1 [Example 261, meso-endo-(8-{2-[4-(6-Methyl-benzothiazol-2-yloxy)-phenyl]-ethyl}-8-aza-bicyclo[3.2.1]oct-3-yl)-urea] |
| 6.89 | CS(=O)(=O)N1C[C@H]2C[C@@H]1CN2CCOc1ccc(Oc2nc3cc(F)ccc3s2)cc1 [Example 168, (R,R)-5-Fluoro-2-{4-[2-(5-methanesulfonyl-2,5-diaza-bicyclo[2.2.1]hept-2-yl)-ethoxy]-phenoxy}-benzothiazole] |
| 7.01 | Cn1ccc(S(=O)(=O)N2CC3CN(Cc4ccc(Oc5nc6ccccc6s5)cc4)CC3C2)c1 (stereo not shown) [Example 123, 2-{4-[5-(1-Methyl-1H-pyrrole-3-sulfonyl)-hexahydro-pyrrolo[3,4-c]pyrrol-2-ylmethyl]-phenoxy}-benzothiazole] |
| < 5.00 | CS(=O)(=O)N1C[C@H]2C[C@@H]1CN2CCc1ccc(Oc2nc3cccc(Cl)c3s2)cc1 [Example 192, (R,R)-7-Chloro-2-{4-[2-(5-methanesulfonyl-2,5-diaza-bicyclo[2.2.1]hept-2-yl)-ethyl]-phenoxy}-benzothiazole] |
| 7.28 | NC(=O)N1CC2CCN(Cc3ccc(Oc4nc5ccccc5s4)cc3)CC2C1 (single isomer, unassigned; (+)) [Example 142A, (+)-5-[4-(Benzothiazol-2-yloxy)-benzyl]-octahydro-pyrrolo[3,4-c]pyridine-2-carboxylic acid amide] |
